Experimental data published in patent US7666994B2, “Cloning and expression of gonadotropin-releasing hormone (GnRH) receptors” (University of New Hampshire, priority 2004, dated 2010).
Ends that are not written are not given here.

Legend:
[1] = tested on: lamprey GnRH receptor transcript; assay: Transcriptional regulation of the GnRH receptor transcript by lamprey GnRH-III (RT-PCR, densitometry normalized to β-actin); type: in vivo, adult male lamprey
Experimental: Forty adult male lamprey's were injected intraperitoneally, twenty (20) with lamprey GnRH-III (200 μL of 0.45 μg/μL lamprey GnRH-III in 0.6% saline) and twenty (20) with control (200 μL of 0.6% saline). Ten (10) fish from each treatment group were sacrificed 24 hours after injection, and brains, pituitaries, kidneys, and testes were dissected and frozen in liquid nitrogen. Forty-eight hours after the first injection, the remaining animals were injected a second time with the same treatment they originally received. Twenty-four hours after the second injection, all remaining animals were sacrificed and tissues dissected and snap frozen. Total RNA was isolated from all tissues using Tri-Reagent (Molecular Research Center, Inc.), treated with RQ1 DNase (PROMEGA), and used as template for RT-PCR with the AccessQuick RT-PCR system (PROMEGA) using the same conditions as above, except 50 ng of template was used per reaction. Reactions were electrophoresed and visualized in 2% agarose gels. Parallel reactions were performed using primers to β-actin as a positive control. Receptor bands were normalized to β-actin and densitometry was performed using a Molecular Imager FX (BioRad, Hercules, Calif.) to determine effects of lamprey […] injection.

lamprey GnRH receptor [2] = assay: cAMP assay in COS7 cells transiently transfected with the lamprey GnRH receptor; type: cell-based, sea lamprey, Petromyzon marinus; conditions: for cAMP response on stimulation of transiently transfected COS7 cells: in words; for LogEC50, cAMP accumulation: mean±SEM, n=3, COS7 cells transiently transfected with lamprey GnRH receptor, 10^-10M to 10^-4M; for cAMP accumulation in cells transfected with blank pcDNA3.1 vector: negative control cells without receptor, data not shown
Sequence of lamprey GnRH receptor (as listed by the source): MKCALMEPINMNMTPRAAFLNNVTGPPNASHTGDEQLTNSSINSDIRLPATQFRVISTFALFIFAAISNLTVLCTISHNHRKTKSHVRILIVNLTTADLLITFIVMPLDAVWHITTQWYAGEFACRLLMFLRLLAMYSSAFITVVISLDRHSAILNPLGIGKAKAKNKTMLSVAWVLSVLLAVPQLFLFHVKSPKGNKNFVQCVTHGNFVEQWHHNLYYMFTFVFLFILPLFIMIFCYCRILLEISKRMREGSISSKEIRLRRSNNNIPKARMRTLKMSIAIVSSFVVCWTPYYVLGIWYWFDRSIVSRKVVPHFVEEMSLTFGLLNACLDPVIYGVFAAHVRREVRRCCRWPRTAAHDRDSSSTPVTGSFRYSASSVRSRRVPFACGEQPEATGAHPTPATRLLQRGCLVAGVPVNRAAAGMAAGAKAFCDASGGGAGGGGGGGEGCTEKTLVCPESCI
Experimental: (§1) The coding region of the lamprey GnRH-R was inserted into the pcDNA3.1 HisTOPO mammalian expression vector (Carlsbad, Calif.) (INVITROGEN, Carlsbad, Calif.). COS7 cells were cultured in 10% fetal bovine serum (FBS) in Dulbeccos Modified Eagles Medium (DMEM) (INVITROGEN), and were maintained at 37° C. in 5% CO 2. The day before transfection, 5×10^5 cells were seeded in 60 mm culture plates. Transfection was performed using 5 μg of vector and 15 μL of Lipofectamine (INVITROGEN) in 2.4 mL total volume in Opti-MEM-I (Invitrogen) and an incubation time of 5 hours at 37° C. in 5% CO 2, after which, 2.5 mL of 20% FBS in DMEM was added and cultures were grown overnight.
(§2) Twenty-four hours after transfection (day 2), cells were trypsinized and 96-well plates were seeded with 5×10^4 cells/well, and cultures were grown overnight. Day 3, cells were stimulated with either control (ID buffer −1.0 mM 3-isobutyl-1-methylxanthine in DMEM) or varying concentrations (10^-10M to 10^-4M) of either lamprey GnRH-I or lamprey GnRH-III (in ID buffer). cAMP assays were performed using the BIOTRAK Enzymeimmunoassay system (AMERSHAM), per the manufacturers instructions. Treatments were performed in triplicate in three independent experiments, while cells transfected with blank vector were used as negative controls. Analyses were performed using GRAPHPAD (Prism, San Diego, Calif.). Inositol Phosphate Assay The inositol phosphate (IP) stimulation and extraction protocol used was adapted from previous studies. Briefly, 24 hours after transfection, cells were trypsinized, and seeded in 12-well plates at approximately 1.5×10^5 cells/well. At hour 72 cells were washed in PBS and incubated in 1 mL of 2% dialyzed fetal bovine serum and 2 μCi/mL myo […] inositol (AMERSHAM) in medium 199 (INVITROGEN). At hour 96 cells were washed 2 times with IP buffer (1×HBSS, 20 mM HEPES, 20 mM LiCL), and were pre-incubated in IP buffer for 15 minutes at 37° C., followed by stimulation with concentrations of lamprey GnRH-I or lamprey GnRH III, in IP buffer, ranging from 10^-6M to 10-11 M, for 1 hour at 37° C. with gentle shaking. The reactions were stopped with the addition of 0.2 mL of pre-chilled 20% perchloric acid, and the plates were placed on ice for 30 minutes. The wells were scraped and the extracts were transferred to sterile 1.5 mL tubes and neutralized with 5M KOH, followed by a 1 hour incubation at 4° C. Tubes were centrifuged at 5,000 rpm at 4° C. for 15 minutes, and 1.2 mL of supernatant was transferred to a new sterile 1.5 mL tube. IPs (IP, IP2 and IP3) were isolated by ion exchange chromatography using AGlX8-200 resin (Bio-Rad) in formate form. IPs were eluted with 1 M ammonium formate/0.1 M formic acid, samples were counted by liquid scintillation and data were analyzed using Prism (GRAPHPAD). Treatments were performed in triplicate in three independent experiments, and cells transfected with blank vector and non-transfected cells were used as negative controls.

[3] = tested on: incubated hemipituitaries of male rats; conditions: cited from earlier work
lamprey GnRH receptor [4] = assay: Inositol phosphate (IP) assay in COS7 cells transiently transfected with the lamprey GnRH receptor; type: cell-based, sea lamprey, Petromyzon marinus; conditions: for IP response on stimulation of transiently transfected COS7 cells: in words; for LogEC50, IP accumulation: mean±SEM, n=3, COS7 cells transiently transfected with lamprey GnRH receptor, 10^-6M to 10-11 M, 1 hour at 37° C.; for IP accumulation in cells transfected with blank pcDNA3.1 vector: negative control cells without receptor, data not shown
Experimental: as §1, §2

[5] = after both one and two injections, densitometry normalized to β-actin, N=10
[6] = relative to lamprey GnRH-I, one statement for both signaling systems

Row | Substance | receptor transcript regulation in pituitary compared to control [1, 5] | receptor transcript regulation in testes compared to control [1, 5] | receptor transcript bands in pituitary versus control ([1]; after one injection, intraperitoneal, 24 hours after injection) | GnRH receptor transcript level in testes versus control ([1]; after one injection, intraperitoneal, 24 hours after injection, control testes high levels) | receptor transcript expression in brain ([1]; after one or two injections) | effects on receptor transcript in pituitary and testes after two injections, relative to one injection ([1]; two injections 48 hours apart, 24 hours after second injection) | cAMP response on stimulation of transiently transfected COS7 cells (lamprey GnRH receptor [2]) | LogEC50, cAMP accumulation (lamprey GnRH receptor [2]) | cAMP accumulation in cells transfected with blank pcDNA3.1 vector (lamprey GnRH receptor [2]) | logEC50 fold lower than that of lamprey GnRH-I, cAMP system (lamprey GnRH receptor [2]; [6]) | FSH-releasing action [3] | IP response on stimulation of transiently transfected COS7 cells (lamprey GnRH receptor [4]) | LogEC50, IP accumulation (lamprey GnRH receptor [4]) | IP accumulation in cells transfected with blank pcDNA3.1 vector (lamprey GnRH receptor [4]) | logEC50 fold lower than that of lamprey GnRH-I, IP system (lamprey GnRH receptor [4]; [6]) | LH-releasing action [3]
1 | lamprey GnRH-III: hypothalamic lamprey GnRH isoform (decapeptide), Tyr instead of Trp in the third position | up-regulated | down-regulated | twice as bright as control | barely detectable levels | not induced | considerably lesser degree | dose dependant responses | −8.29±0.090 | no response | 40-50 fold | potent, dose-related | dose dependant responses | −9.37±0.243 | no response | 40-50 fold | 
2 | lamprey GnRH-I: one of two hypothalamic GnRH isoforms (decapeptide) identified in the brain of the lamprey (QHYSLEWKPG; ends and bridges not checked) |  |  |  |  |  |  | dose dependant responses | −6.57±0.150 | no response |  | little activity | dose dependant responses | −8.10±0.150 | no response |  | little activity
